Activity calls are given as the source filed them. How the calls were made is not given here.
System: CCRIS mutagenicity, Ames/micronucleus/aberration tests
Test: CCRIS mutagenicity studies

Cc1ccc(N)cc1N
mutagenic call (End Point: IN VITRO CHROMOSOMAL ABERRATIONS, Test System: CHL CELLS, Metabolic Activation: NONE): active; positive (structural changes)
mutagenic call (End Point: IN VITRO CHROMOSOMAL ABERRATIONS, Test System: CHL CELLS, Metabolic Activation: RAT, LIVER, S-9, SODIUM PHENOBARBITAL AND 5,6-BENZOFLAVONE): active; positive (structural changes)
mutagenic call (End Point: IN VITRO CHROMOSOMAL ABERRATIONS, Test System: CHO-LB CELLS, Metabolic Activation: NONE): active; positive
mutagenic call (End Point: IN VITRO CHROMOSOMAL ABERRATIONS, Test System: CHO-LB CELLS, Metabolic Activation: RAT, LIVER, S-9, AROCLOR 1254): active; positive
mutagenic call (End Point: IN VITRO CHROMOSOMAL ABERRATIONS, Test System: CHO-WBL CELLS, Metabolic Activation: NONE): active; positive
mutagenic call (End Point: IN VITRO MICRONUCLEUS, Test System: HUMAN HEPATOMA HEP G2 CELLS, Metabolic Activation: NONE): active; positive
mutagenic call (Test System: AMES SALMONELLA TYPHIMURIUM, Strain/Indicator: TA97, Metabolic Activation: RAT, LIVER, S-9, AROCLOR 1254 (4 OR 10%), Method: STANDARD PLATE): inactive; negative
mutagenic call (Test System: AMES SALMONELLA TYPHIMURIUM, Strain/Indicator: TA98(1,8-DNP6), Metabolic Activation: PLANT CELLS, Method: PREINCUBATION): inactive; negative
mutagenic call (Test System: AMES SALMONELLA TYPHIMURIUM, Strain/Indicator: TA98(1,8-DNP6), Metabolic Activation: RAT, LIVER, S-9, AROCLOR 1254, Method: STANDARD PLATE): inactive; negative
mutagenic call (Test System: AMES SALMONELLA TYPHIMURIUM, Strain/Indicator: TA98(PYG219), Metabolic Activation: RAT, LIVER, S-9, AROCLOR 1254, Method: STANDARD PLATE): active; positive
mutagenic call (Test System: AMES SALMONELLA TYPHIMURIUM, Strain/Indicator: TA98, Metabolic Activation: MOUSE, LIVER, S-9, PHENOBARBITONE AND BETA-NAPHTHOFLAVONE, Method: STANDARD PLATE): active; positive
mutagenic call (Test System: AMES SALMONELLA TYPHIMURIUM, Strain/Indicator: TA98, Metabolic Activation: NONE, Method: MICROSUSPENSION): inactive; negative
mutagenic call (Test System: AMES SALMONELLA TYPHIMURIUM, Strain/Indicator: TA98, Metabolic Activation: NONE, Method: SUSPENSION/PLATE): inactive; negative
mutagenic call (Test System: AMES SALMONELLA TYPHIMURIUM, Strain/Indicator: TA98, Metabolic Activation: PLANT CELLS, Method: PREINCUBATION): inactive; negative
mutagenic call (Test System: AMES SALMONELLA TYPHIMURIUM, Strain/Indicator: TA98, Metabolic Activation: RAT LIVER CYTOSOL, AROCLOR 1254, Method: PREINCUBATION): inactive; negative
mutagenic call (Test System: AMES SALMONELLA TYPHIMURIUM, Strain/Indicator: TA98, Metabolic Activation: RAT LIVER MICROSOMES, AROCLOR 1254, Method: PREINCUBATION): active; positive
mutagenic call (Test System: AMES SALMONELLA TYPHIMURIUM, Strain/Indicator: TA98, Metabolic Activation: RAT LIVER S-9, AROCLOR 1254, Method: MICROSUSPENSION): active; positive
mutagenic call (Test System: AMES SALMONELLA TYPHIMURIUM, Strain/Indicator: TA98, Metabolic Activation: RAT LIVER S-9, PHENOBARBITAL AND BETA-NAPHTHOFLAVONE, Method: PREINCUBATION): active; positive
mutagenic call (Test System: AMES SALMONELLA TYPHIMURIUM, Strain/Indicator: TA98, Metabolic Activation: RAT, LIVER, HEPATOCYTES, AROCLOR 1254, Method: STANDARD PLATE): active; positive
mutagenic call (Test System: AMES SALMONELLA TYPHIMURIUM, Strain/Indicator: TA98, Metabolic Activation: RAT, LIVER, MICROSOMES, AROCLOR 1254, Method: PREINCUBATION): active; positive
mutagenic call (Test System: AMES SALMONELLA TYPHIMURIUM, Strain/Indicator: TA98, Metabolic Activation: RAT, LIVER, MICROSOMES, BENZO[A]PYRENE, Method: PREINCUBATION): active; positive
mutagenic call (Test System: AMES SALMONELLA TYPHIMURIUM, Strain/Indicator: TA98, Metabolic Activation: RAT, LIVER, MICROSOMES, CLOFIBRATE, Method: PREINCUBATION): inactive; negative
mutagenic call (Test System: AMES SALMONELLA TYPHIMURIUM, Strain/Indicator: TA98, Metabolic Activation: RAT, LIVER, MICROSOMES, DEXAMETHASONE, Method: PREINCUBATION): inactive; negative
mutagenic call (Test System: AMES SALMONELLA TYPHIMURIUM, Strain/Indicator: TA98, Metabolic Activation: RAT, LIVER, MICROSOMES, DIAMINOTOLUENE, Method: PREINCUBATION): active; positive
mutagenic call (Test System: AMES SALMONELLA TYPHIMURIUM, Strain/Indicator: TA98, Metabolic Activation: RAT, LIVER, MICROSOMES, ISONIAZID, Method: PREINCUBATION): inactive; negative
mutagenic call (Test System: AMES SALMONELLA TYPHIMURIUM, Strain/Indicator: TA98, Metabolic Activation: RAT, LIVER, MICROSOMES, PHENOBARBITAL, Method: PREINCUBATION): inactive; negative
mutagenic call (Test System: AMES SALMONELLA TYPHIMURIUM, Strain/Indicator: TA98, Metabolic Activation: RAT, LIVER, MICROSOMES, Method: PREINCUBATION): inactive; negative
mutagenic call (Test System: AMES SALMONELLA TYPHIMURIUM, Strain/Indicator: TA98, Metabolic Activation: RAT, LIVER, S-9, AROCLOR 1254, Method: STANDARD PLATE): active; positive
mutagenic call (Test System: AMES SALMONELLA TYPHIMURIUM, Strain/Indicator: TA98, Metabolic Activation: RAT, LIVER, S-9, AROCLOR, Method: PREINCUBATION): active; positive
mutagenic call (Test System: AMES SALMONELLA TYPHIMURIUM, Strain/Indicator: TA98, Metabolic Activation: RAT, LIVER, S-9, PCB, Method: PREINCUBATION): active; positive
mutagenic call (Test System: AMES SALMONELLA TYPHIMURIUM, Strain/Indicator: TA98, Metabolic Activation: RAT, LIVER, S-9, PHENOBARBITAL AND 5,6-BENZOFLAVONE, Method: PREINCUBATION): active; positive
mutagenic call (Test System: AMES SALMONELLA TYPHIMURIUM, Strain/Indicator: TA98, Metabolic Activation: RAT, LIVER, S-9, PHENOBARBITAL AND 5,6-BENZOFLAVONE, Method: SUSPENSION/PLATE): active; positive
mutagenic call (Test System: AMES SALMONELLA TYPHIMURIUM, Strain/Indicator: TA100, Metabolic Activation: NONE, Method: MICROSUSPENSION): inactive; negative
mutagenic call (Test System: AMES SALMONELLA TYPHIMURIUM, Strain/Indicator: TA100, Metabolic Activation: NONE, Method: PREINCUBATION): inactive; negative
mutagenic call (Test System: AMES SALMONELLA TYPHIMURIUM, Strain/Indicator: TA100, Metabolic Activation: NONE, Method: SUSPENSION/PLATE): inactive; negative
mutagenic call (Test System: AMES SALMONELLA TYPHIMURIUM, Strain/Indicator: TA100, Metabolic Activation: RAT LIVER S-9, AROCLOR 1254, Method: MICROSUSPENSION): inactive; negative
mutagenic call (Test System: AMES SALMONELLA TYPHIMURIUM, Strain/Indicator: TA100, Metabolic Activation: RAT LIVER S-9, PHENOBARBITAL AND BETA-NAPHTHOFLAVONE, Method: PREINCUBATION): active; positive
mutagenic call (Test System: AMES SALMONELLA TYPHIMURIUM, Strain/Indicator: TA100, Metabolic Activation: RAT, LIVER, S-9, AROCLOR 1254, Method: STANDARD PLATE): active; positive
mutagenic call (Test System: AMES SALMONELLA TYPHIMURIUM, Strain/Indicator: TA100, Metabolic Activation: RAT, LIVER, S-9, PCB, Method: PREINCUBATION): active; positive
mutagenic call (Test System: AMES SALMONELLA TYPHIMURIUM, Strain/Indicator: TA100, Metabolic Activation: RAT, LIVER, S-9, PHENOBARBITAL AND 5,6-BENZOFLAVONE, Method: PREINCUBATION): active; positive
mutagenic call (Test System: AMES SALMONELLA TYPHIMURIUM, Strain/Indicator: TA100, Metabolic Activation: RAT, LIVER, S-9, PHENOBARBITAL AND 5,6-BENZOFLAVONE, Method: SUSPENSION/PLATE): active; positive
mutagenic call (Test System: AMES SALMONELLA TYPHIMURIUM, Strain/Indicator: TA1535, Metabolic Activation: NONE, Method: PREINCUBATION): inactive; negative
mutagenic call (Test System: AMES SALMONELLA TYPHIMURIUM, Strain/Indicator: TA1535, Metabolic Activation: RAT LIVER S-9, PHENOBARBITAL AND BETA-NAPHTHOFLAVONE, Method: PREINCUBATION): inactive; negative
mutagenic call (Test System: AMES SALMONELLA TYPHIMURIUM, Strain/Indicator: TA1537, Metabolic Activation: NONE, Method: PREINCUBATION): inactive; negative
mutagenic call (Test System: AMES SALMONELLA TYPHIMURIUM, Strain/Indicator: TA1537, Metabolic Activation: RAT LIVER S-9, PHENOBARBITAL AND BETA-NAPHTHOFLAVONE, Method: PREINCUBATION): active; positive
mutagenic call (Test System: AMES SALMONELLA TYPHIMURIUM, Strain/Indicator: TA1537, Metabolic Activation: RAT, LIVER, S-9, AROCLOR 1254 (4 OR 10%), Method: STANDARD PLATE): inactive; negative
mutagenic call (Test System: AMES SALMONELLA TYPHIMURIUM, Strain/Indicator: TA1538, Metabolic Activation: RAT, LIVER, S-9, AROCLOR 1254 (4 OR 10%), Method: STANDARD PLATE): active; positive
mutagenic call (Test System: AMES SALMONELLA TYPHIMURIUM, Strain/Indicator: TA1538, Metabolic Activation: RAT, LIVER, S-9, AROCLOR 1254, Method: STANDARD PLATE): active; positive
mutagenic call (Test System: AMES SALMONELLA TYPHIMURIUM, Strain/Indicator: YG1024, Metabolic Activation: PLANT CELLS, Method: PREINCUBATION): active; positive
mutagenic call (Test System: CHINESE HAMSTER V-79, Strain/Indicator: V-79/6-THIOGUANINE, Metabolic Activation: NONE, Method: SUSPENSION/PLATE): inactive; negative
mutagenic call (Test System: CHINESE HAMSTER V-79, Strain/Indicator: V-79/6-THIOGUANINE, Metabolic Activation: RAT, LIVER, S-9, PHENOBARBITAL AND BETA-NAPHTHOFLAVONE, Method: SUSPENSION/PLATE): inactive; negative
mutagenic call (Test System: E.COLI, Strain/Indicator: WP2UVRA, Metabolic Activation: NONE, Method: PREINCUBATION): inactive; negative
mutagenic call (Test System: E.COLI, Strain/Indicator: WP2UVRA, Metabolic Activation: RAT LIVER S-9, PHENOBARBITAL AND BETA-NAPHTHOFLAVONE, Method: PREINCUBATION): inactive; negative
mutagenic call (Test System: UDS HUMAN HEPATOMA HEPG2 CELLS, Strain/Indicator: THY INCORP, Metabolic Activation: NONE, Method: AUTORADIOGRAPHY): active; positive
mutagenic call (Test System: UDS RAT HEPATOCYTES, Strain/Indicator: BROMODEOXYURIDINE INCORP, Metabolic Activation: NONE, Method: FLOW CYTOMETRIC ANALYSIS): active; positive
mutagenic call (Test System: UDS RAT HEPATOCYTES, Strain/Indicator: THY INCORP, Metabolic Activation: NONE, Method: AUTORADIOGRAPHY): active; positive
